Measured values: US20200131144A1, “AMINE OR (THIO)AMIDE CONTAINING LXR MODULATORS” (Phenex-FXR GmbH, priority 2017, published 2020)

Key:
[1] = Pharmacokinetics in mice after single oral dosing, blood and liver exposure by LC-MS; type: in vivo, mice (C57/bl6/J); settings: single oral dose 20 mg/kg
Experimental: The pharmacokinetics of the compounds was assessed in mice after single dosing and oral administrations. Blood and liver exposure was measured via LC-MS.
The study design was as follows:
Animals: C57/bl6/J (Janvier) males Diet: standard rodent chow Dose: 20 mg/kg Animal handling: animals were withdrawn from food at least 12 h before administration Design: single dose oral administration, n=3 animals per group Sacrifice: at stated time point (4, 12 or 24 h) after administration Bioanalytics: LC-MS of liver and blood samples

[2] = target: T1, LXRβ ligand-binding domain (LBD) (Homo sapiens, UniProt P55055, INS174Q); assay: LXR Gal4 reporter transient transfection assay, mammalian two-hybrid, LBD-M2H Gal4β; type: cell-based; settings: HEK293 cells; inverse agonist unless *
T1 construct: or LXR (amino acids 156-461); expressed in transfected cells; host or cells: HEK293
T1 sequence (P55055 with tags, fused parts or gaps INS174Q limits assumed): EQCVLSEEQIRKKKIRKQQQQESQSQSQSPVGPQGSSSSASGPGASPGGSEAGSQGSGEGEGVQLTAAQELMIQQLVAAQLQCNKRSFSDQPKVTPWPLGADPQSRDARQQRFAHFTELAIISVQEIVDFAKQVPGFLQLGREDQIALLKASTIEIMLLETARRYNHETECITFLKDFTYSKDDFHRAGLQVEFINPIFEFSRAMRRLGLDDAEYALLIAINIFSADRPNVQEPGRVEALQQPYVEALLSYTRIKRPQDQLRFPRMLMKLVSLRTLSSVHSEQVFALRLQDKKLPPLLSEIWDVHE
Experimental: (§1) The tested compounds were usually dissolved, tested and stored as 20 mM stock solutions in DMSO. Since sulfonyl acetic acid derivatives tend to decarboxylate under these conditions, these stock solutions were prepared, tested and stored as 20 mM DMSO stock solutions containing 100 mM trifluoroacetic acid (5 equivalents). Sulfonyl acetic acid derivatives are shelf stable as solid at rt for long time as reported by Griesbrecht et al. (Synlett 2010:374) or Faucher et al. (J. Med. Chem. 2004; 47:18).
(§2) LXR Gal4 Reporter Transient Transfection Assays
(§3) LXRα and LXRβ activity status was determined via detection of interaction with coactivator and corepressor proteins in mammalian two-hybrid experiments (M2H). For this, via transient transfection the full length (FL) proteins of LXRα (amino acids 1-447; NP005684; SEQ ID NO:1) or LXRβ-(amino acids 1-461; NP009052; SEQ ID NO:2) or the ligand-binding domains (LBD) of LXRα (amino acids 155-447 SEQ ID NO:3) or LXR (amino acids 156-461; SEQ ID NO:4) were expressed from pCMV-AD (Stratagene) as fusions to the transcriptional activation domain of NFkB. As cofactors, domains of either the steroid receptor coactivator 1 (SRC1; amino acids 552-887; SEQ ID NO:5) or of the corepressor NCoR (amino acids 1906-2312; NP006302; SEQ ID NO:6) were expressed as fusions to the DNA binding domain of the yeast transcription factor GAL4 (from pCMV-BD; Stratagene). Interaction was monitored via activation of a coexpressed Firefly Luciferase Reporter gene under control of a promoter containing repetitive GAL4 response elements (vector pFRLuc; Stratagene). Transfection efficiency was controlled via cotransfection of constitutively active pRL-CMV Renilla reniformis luciferase reporter (Promega). HEK293 cells were grown in minimum essential medium (MEM) with 2 mM L-glutamine and Earle's balanced salt solution supplemented with 8.3% fetal bovine serum, 0.1 mM non-essential amino acids, 1 mM sodium pyruvate, at 37° C. in 5% CO2. 3.5×10^4 cells/well were plated in 96-well cell culture plates in growth medium supplemented with 8.3% fetal bovine serum for 16-20 h to—90% confluency. For transfection, medium was taken off and LXR and cofactor expressing plasmids as well as the reporter plasmids are added in 30 μL OPTIMEM/well including polyethylene-imine (PEI) as vehicle. Typical amounts of plasmids transfected/well: pCMV-AD-LXR (5 ng), pCMV-BD-cofactor (5 ng), pFR-Luc (100 ng), pRL-CMV (0.5 ng). Compound stocks were prepared in DMSO, prediluted in MEM to a total volume of 120 μL, and added 4 h after addition of the transfection mixture (final vehicle concentration not exceeding 0.2%). Cells were incubated for additional 16 h, lysed for 10 min in 1×Passive Lysis Buffer (Promega) and Firefly and Renilla luciferase activities were measured sequentially in the same cell extract using buffers containing D-luciferine and coelenterazine, respectively. Measurements of luminescence were done in a BMG-luminometer.

[3] = target: T2, LXRα ligand-binding domain (LBD) (Homo sapiens, UniProt Q13133); assay: LXR Gal4 reporter transient transfection assay, mammalian two-hybrid, LBD-M2H Gal4α; type: cell-based; settings: HEK293 cells; inverse agonist unless *
T2 construct: expressed in transfected cells; host or cells: HEK293
T2 sequence (Q13133 155-447): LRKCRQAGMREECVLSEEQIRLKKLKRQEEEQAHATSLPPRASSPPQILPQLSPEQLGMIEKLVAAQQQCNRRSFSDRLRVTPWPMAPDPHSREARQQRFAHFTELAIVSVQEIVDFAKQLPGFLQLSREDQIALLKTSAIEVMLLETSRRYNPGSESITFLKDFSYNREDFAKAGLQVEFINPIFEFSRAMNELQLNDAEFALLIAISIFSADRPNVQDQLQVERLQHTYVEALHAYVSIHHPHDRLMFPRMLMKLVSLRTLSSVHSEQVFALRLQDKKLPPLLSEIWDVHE
Experimental: as §1, §2, §3

[4] = target: T3, GST-LXRβ ligand-binding domain (Homo sapiens, UniProt P55055, INS174Q); assay: TR-FRETβ activity assay (NCoA3 coactivator peptide recruitment); type: biochemical; settings: 1 μM 24(S)-25-epoxycholesterol as prestimulating agonist; inverse agonist unless *
T3 construct: amino acids 156-461; NP009052; made in house; host or cells: E. coli
T3 sequence (P55055 with tags, fused parts or gaps INS174Q limits assumed): T1 sequence (P55055 with tags, fused parts or gaps INS174Q limits assumed)
Summary of the method: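 E. coli-expressed GST-LXRβ LBD (aa 156-461, 76 nM) with biotinylated NCoA3 peptide (400 nM), anti-GST-Tb cryptate donor and streptavidin-XL665 acceptor in 240 mM KCl, BSA, 0.002% Triton X-100. Equilibrated 1 h at 4° C; TR-FRET read at 615/665 nm, triplicates.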

[5] = male, C57/bl6/J, mouse, liver/blood, time point 4 h, read-out: liver/blood ratio

| SMILES | liver exposure ([1]; time point 12 h) [µM] | EC50 [2] [nM] | EC50 [3] [nM] | EC50 [4] [nM] | Kp at 4 h [1, 5] | blood/plasma exposure ([1]; time point 4 h) [µM] | liver exposure ([1]; time point 4 h) [µM] | Kp at 12 h ([1]; male, C57/bl6/J, mouse, liver/blood, time point 12 h, read-out: liver/blood ratio) | blood/plasma exposure ([1]; time point 12 h) [µM] | FRETβ [4] |
| --- | --- | --- | --- | --- | --- | --- | --- | --- | --- | --- |
| Cc1cc(C)c(C(=O)N(Cc2ccc(-c3cccc(S(=O)(=O)CC(=O)O)c3)cc2)Cc2ccc(C(F)(F)F)o2)c(C)c1 [Example 4, 2-((4′-((2,4,6-Trimethyl-N-((5-(trifluoromethyl)furan-2-yl)methyl)benzamido)methyl)-1,1′-biphenyl-3-yl)sulfonyl)acetic acid] | 3.45 | 100 to 1000 | 100 to 1000 | 1000 to 10000 | – | – | – | – | – | – |
| Cc1ccc2ccccc2c1CN(Cc1ccc(C(F)(F)F)o1)Cc1ccc(-c2cccc(C(C)(C)C(=O)O)c2)c2nccn12 [7/15] | – | < 100 | 100 to 1000 | 1000 to 10000 | – | – | – | – | – | – |
| CC(C)(C(=O)O)c1cccc(-c2ccc(CN(Cc3ccc(C(F)(F)F)o3)Cc3c(C#N)ccc4ccccc34)cc2)c1 [27/67] | – | < 100 | < 100 | < 100 | 2.7 | 4.46 | 12.1 | – | – | – |
| COc1cc(-c2cccc(C(C)(C)C(=O)O)c2)ccc1CN(Cc1ccc(C(F)(F)F)o1)Cc1c(C)cc(C)cc1C [22/12] | – | < 100 | 100 to 1000 | 100 to 1000 | – | – | – | – | – | – |
| Cc1ccc2ccccc2c1CN(Cc1ccc(-c2cccc(C(C)(C)C(=O)O)n2)cc1)Cc1ccc(C(F)(F)F)o1 [14/2] | – | < 100 | 100 to 1000 | 1000 to 10000 | – | – | – | – | – | – |
| Cc1cc(C)c(CN(Cc2ccc(C(F)(F)F)o2)Cc2ccc(-c3cccc(S(=O)(=O)CC(=O)O)c3)cc2Cl)c(C)c1 [15/3] | – | 100 to 1000 | 1000 to 10000 | 1000 to 10000 | – | – | – | – | – | – |
| CC(c1cccc2ccccc12)N(Cc1ccc(-c2cccc(S(=O)(=O)CC(=O)O)c2)cc1)Cc1ccc(C(F)(F)F)o1 (stereo not shown) [Example 7, 2-((4′-(((1-(Naphthalen-1-yl)ethyl)((5-(trifluoromethyl)furan-2-yl)methyl)amino)methyl)-[1,1′-biphenyl]-3-yl)sulfonyl)acetic acid] | – | < 100 | < 100 | < 100 | – | – | – | – | – | – |
| Cc1ccc2ccccc2c1CN(Cc1ccc(-c2cncc(C(C)(C)C(=O)O)c2)cc1)Cc1ccc(C(F)(F)F)o1 [26/1] | – | < 100 | 100 to 1000 | 1000 to 10000 | – | – | – | – | – | – |
| Cc1cc(C)c(C(=O)N(Cc2ccc(-c3cccc(CCC(=O)O)c3)cc2)Cc2ccc(C(F)(F)F)o2)c(C)c1 [10/2] | – | < 100 | 100 to 1000 | 1000 to 10000 | – | – | – | – | – | – |
| Cc1cc(C)c(C(=O)N(Cc2ccc(-c3cccc(OCC(=O)O)c3)cc2)Cc2ccc(C(F)(F)F)o2)c(C)c1 [10/3] | – | 100 to 1000 | 100 to 1000 | > 10000 | – | – | – | – | – | – |
| Cc1cc(C)c(CN(Cc2ccc(-c3cccc(S(=O)(=O)CC(=O)O)c3)cc2)Cc2ccc(C(F)(F)F)o2)c(C)c1 [Example 1, 2-((4′-((((5-(Trifluoromethyl)furan-2-yl)methyl)(2,4,6-trimethylbenzyl)amino)methyl)-1,1′-biphenyl-3-yl)sulfonyl)acetic acid] | 3.2 | 100 to 1000 | 1000 to 10000 | 1000 to 10000 | 51 | 0.83 | 42 | 54 | 0.06 | – |
| COc1cc(-c2cccc(C(C)(C)C(=O)O)c2)ccc1CN(Cc1ccc(C(F)(F)F)o1)Cc1c(C)ccc2ccccc12 [22/11] | – | < 100 | < 100 | 100 to 1000 | 4.8 | 0.57 | 2.75 | – | – | – |
| COc1cc(-c2cccc(C(C)(C)C(=O)O)c2)cnc1CN(Cc1ccc(C(F)(F)F)o1)Cc1c(C)ccc2ccccc12 [22/4] | – | < 100 | 1000 to 10000 | 100 to 1000 | – | – | – | – | – | – |
| COC(=O)CS(=O)(=O)c1cc(-c2ccc(CN(Cc3ccc(C(F)(F)F)o3)Cc3c(C)cc(C)cc3C)cc2)cc(F)c1CO [Example 13] | – | < 100 | 1000 to 10000 | 100 to 1000 | – | – | – | – | – | – |
| CC(C)(C(=O)O)c1cccc(-c2ccc(CN(Cc3ccc(C(F)(F)F)o3)C(=O)c3cccn4nccc34)cc2)c1 [27/70] | – | < 100 | 100 to 1000 | 100 to 1000 | – | – | – | – | – | – |
| Cc1ccc2ncccc2c1CN(Cc1ccc(-c2cccc(C(C)(C)C(=O)O)c2)cc1)Cc1ccc(C(F)(F)F)o1 [24/3] | – | < 100 | < 100 | 100 to 1000 | 9.7 | 1.22 | 11.8 | – | – | – |
| Cc1nc2ccccc2c(CN(Cc2ccc(-c3cccc(C(C)(C)C(=O)O)c3)cc2)Cc2ccc(C(F)(F)F)o2)c1C [24/5] | – | < 100 | < 100 | – | – | – | – | – | – | D* |
| COc1cc(-c2ccc3c(c2)C(C)(C)C(=O)OC3)ccc1CN(Cc1ccc(C(F)(F)F)o1)Cc1c(C)ccc2ccccc12 [7/9] | – | < 100 | 1000 to 10000 | 1000 to 10000 | – | – | – | – | – | – |
| CC(C)(C(=O)O)c1cccc(-c2ccc(CN(Cc3ccc(C(F)(F)F)o3)Cc3c(C(F)F)ccc4ccccc34)cc2)c1 [27/69] | – | < 100 | < 100 | 100 to 1000 | – | – | – | – | – | – |
| CC(C)(C(=O)O)c1cccc(-c2ccc(CN(Cc3ccc(C(F)(F)F)o3)C(=O)C34CC5CC(CC(C5)C3)C4)cc2)c1 [27/56] | – | < 100 | 100 to 1000 | – | – | – | – | – | – | B* |
| Cc1ccc2ccccc2c1CN(Cc1ccc(-c2ccnc(C(C)(C)C(=O)O)c2)cc1)Cc1ccc(C(F)(F)F)o1 [14/3] | – | < 100 | < 100 | 100 to 1000 | – | – | – | – | – | – |
| Cc1ncc2ccccc2c1CN(Cc1ccc(-c2cccc(C(C)(C)C(=O)O)c2)cc1)Cc1ccc(C(F)(F)F)o1 [24/4] | – | < 100 | < 100 | 100 to 1000 | – | – | – | – | – | – |
| Cc1cc(C)c2ccccc2c1CN(Cc1ccc(-c2cccc(C(C)(C)C(=O)O)c2)cc1)Cc1ccc(C(F)(F)F)o1 [24/6] | – | < 100 | < 100 | 100 to 1000 | – | – | – | – | – | – |
| Cc1ccc2ccccc2c1CN(Cc1ccc(-c2cc(C(C)(C)C(=O)O)ccn2)cc1)Cc1ccc(C(F)(F)F)o1 [14/1] | – | < 100 | 100 to 1000 | 1000 to 10000 | – | – | – | – | – | – |
